Patent US8529915B2, “(R)-(-)-1,2-propanediol compositions and methods” (priority 2010, dated 2013)
≈ marks a conversion by molar mass, not a printed value. Entries after “also recorded” stand apart in the source; their conditions may differ. Read-outs that look alike come from different tables or passages of the source.

Legend:
humans = conditions: based on intravenous infusion studies; cited from earlier work
rodents = conditions: oral; cited from earlier work
philtrum skin = philtrum skin cooling bioassay; type: in vivo, human; conditions: for cooling activity AUC in (R)-1,2-propanediol / cooling activity AUC in racemic-1,2-propanediol: ± S.E.M.; for cooling effect: applied to the philtrum
Description: The term “alcoholic solvent” refers to a chemical with one to four carbons with at least one hydroxyl group attached to a carbon atom. A reliable place for topical application is the skin above the upper lip (above the vermilion border of the lips), on the philtrum, lateral to the philtrum until the nasolabial folds, and on the lower nostrils (subnasale). This part of the face is known to be densely innervated with cold receptors, second only to the surfaces of the eyeball and anogenitalia. Tingling, cool and cold sensations from the skin may be experienced and rated for time of onset and intensity.
The intervals for recording sensations are 5 to 10 minutes, until two successive zeroes are obtained. The results (shown in the Figures) are averaged values of 4 to 6 separate trials in the same individual. The data are plotted using SigmaPlot (Systat Software, Point Richmond Calif.) and a smoothing function with a negative exponential was used for analysis and statistical fit of the results. The onset of drug action is taken as the time to reach 2 units of coolness intensity, and offset of drug action is the time when coolness intensity drops below 2, after previously surpassing 2 units. The duration of cooling action is defined as the offset time minus the onset time and the primary index of effect. […]
Using a cotton-tipped applicator (e.g. Q-tips®) 0.10 to 0.25 ml of the test solution was applied to the skin above the upper lip, on the philtrum, and lateral to the philtrum up to the nasolabial folds, and the onset and duration of cooling sensations noted. […] The interval for recording sensations was at 5 to 10 minute intervals, until at least two successive zeroes were obtained. The results were averaged values of 3 to 6 separate trials in the same individual. The “onset” is the time taken to reach a coolness intensity value of 2. […] The “off-set” is when the coolness intensity drops below 2, and the duration is the time of off-set minus the time of onset. The area under the curve (AUC) also gives an estimate of the intensity and duration of drug action and can be obtained from the plotted data using SigmaPlot (Systat Software, Point Richmond Calif.). The AUC is given in average ±S.E.M. units which is the product of cooling intensity×min.

tongue = conditions: average for 6 subjects, filter paper on dorsal tongue, 30 seconds; cited from earlier work
solubility in solvents = type: physicochemical; conditions: organic solvent or mixture
Experimental: Many cooling agents are more soluble in ethanol than in 1,2-propanediol. For example, W-3 and CPS-369 are soluble in absolute ethanol at >300 mg/ml and >500 mg/ml, respectively. These compounds are less soluble in 1,2-propanediol, with solubilities of about 10 mg/ml at standard conditions. To formulate liquid compositions of cooling agents, it is convenient to use up to 5% of ethanol in the total volume to dissolve the cooling agent and then add the rest as (R)-1,2-propanediol to complete the formulation without significant loss of cooling actions.

[1] = test system: itch (contact dermatitis) on the scalp; test: scalp itch (contact dermatitis) case, topical application; type: in vivo, human; conditions: for sensations of coolness after application to scalp: 5 mg/ml in 1% ethanol-99% (R)-1,2-propanediol, droplet delivery; for itch after two days of applications: applications spaced approximately 10 hours apart, scalp
Experimental: An individual developed intense itch (contact dermatitis) on the scalp at the base of the skull after use of hair dye. A cotton-tipped stick was used to apply CPS-410 or CPS-412, 5 mg/ml dissolved in a 1% ethanol-99% (R)-1,2-propanediol, to the site of itch. The itch sensations were suppressed within 5 min of application of either solution and this effect lasted for at least 8 hr. In a second experiment, the solutions were applied using a plastic bottle with a conical Yorker spout. This allowed more precise droplet delivery of the solution to the site of itch. […] The advantage of liquid formulation is the ease of uniform delivery to the inflamed site, a method not achievable with cream or ointment. Itch symptoms of hair and fur occur in seborrheic dermatitis, psoriasis, insect bites, canine pruritus, and allergic dermatitis. Liquid formulations containing (R)-1,2-propanediol and a cooling agent may be therapeutically valuable in these conditions.

TRP-M8 receptor = TRP-M8 receptor (Homo sapiens, UniProt Q7Z2W7); conditions: cited from earlier work
TRP-M8 receptor, sequence (Q7Z2W7 whole entry): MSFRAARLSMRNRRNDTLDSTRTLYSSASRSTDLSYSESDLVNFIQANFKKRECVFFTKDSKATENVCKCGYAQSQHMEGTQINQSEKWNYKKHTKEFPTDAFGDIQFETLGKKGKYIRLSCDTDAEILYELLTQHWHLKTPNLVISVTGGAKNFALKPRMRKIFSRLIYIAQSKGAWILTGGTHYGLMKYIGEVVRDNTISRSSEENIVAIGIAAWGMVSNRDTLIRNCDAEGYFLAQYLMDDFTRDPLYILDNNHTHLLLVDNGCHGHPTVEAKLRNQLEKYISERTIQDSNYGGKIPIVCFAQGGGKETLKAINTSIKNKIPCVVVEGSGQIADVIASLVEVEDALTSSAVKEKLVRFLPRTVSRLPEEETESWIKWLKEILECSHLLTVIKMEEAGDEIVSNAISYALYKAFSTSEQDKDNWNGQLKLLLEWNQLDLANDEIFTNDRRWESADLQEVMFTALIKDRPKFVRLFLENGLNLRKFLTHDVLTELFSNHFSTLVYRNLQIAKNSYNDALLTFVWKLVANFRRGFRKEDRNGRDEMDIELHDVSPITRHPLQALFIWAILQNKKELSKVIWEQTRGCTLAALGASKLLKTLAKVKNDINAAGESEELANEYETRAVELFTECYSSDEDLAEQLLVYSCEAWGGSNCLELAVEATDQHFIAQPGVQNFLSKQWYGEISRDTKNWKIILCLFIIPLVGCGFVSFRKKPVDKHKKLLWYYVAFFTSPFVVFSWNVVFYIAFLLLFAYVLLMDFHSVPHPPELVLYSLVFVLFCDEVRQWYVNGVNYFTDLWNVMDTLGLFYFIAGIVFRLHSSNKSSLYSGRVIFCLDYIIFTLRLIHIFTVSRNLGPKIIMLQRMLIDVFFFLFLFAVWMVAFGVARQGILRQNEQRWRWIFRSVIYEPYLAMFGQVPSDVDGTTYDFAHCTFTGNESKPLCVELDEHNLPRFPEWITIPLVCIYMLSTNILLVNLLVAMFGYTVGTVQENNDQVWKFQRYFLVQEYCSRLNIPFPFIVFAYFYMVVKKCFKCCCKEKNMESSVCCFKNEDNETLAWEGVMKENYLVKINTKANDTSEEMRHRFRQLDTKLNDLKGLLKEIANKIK

[2] = test system: axillary skin lesion of plaque psoriasis; test: plaque psoriasis case, axillary skin lesion itch and burning; type: in vivo, human; conditions: same patient, subsequent treatment
Description: A person with an 8-year history of plaque psoriasis complained of an axillary skin lesion that itched, had burning sensations, and kept them awake at night. Their condition was severe and chronic. Their parent complained that they had to vacuum their bedroom every day in order to remove flaking skin debris. […] They volunteered to try CPS-148, 2% dissolved in 1% ethanol-99% (R)-1,2-propanediol, and was given instructions on how to apply the solution to their site of itch with a swab stick (Q-tip™). They claimed after the first time of application at night the burning sensations and itch disappeared within 5 to 10 min and they were able to have a good night's sleep. They continued to use the solution on an “as-needed basis” for one month and claimed that they slept much better than before.

[3] = CPS-369 at 10 mg/ml dissolved in the named solvent, applied to philtrum skin, based on AUC, inactive = coolness intensity did not exceed 2 units
[4] = absolute ethanol, read-out: solubility in absolute ethanol
[5] = 1,2-propanediol, standard conditions, read-out: solubility in 1,2-propanediol
[6] = 5 mg/ml, (R)-1,2-propanediol with 1% ethanol vol/vol, philtrum
[7] = 5 mg/ml, racemic 1,2-propanediol with 1% ethanol vol/vol, philtrum

Which “estimated “safe” dose” value (humans) does the source give for CC(O)CO (racemic) [racemic 1,2-propanediol, 1,2-propanediol] here?
Its value is 1 g per kg body weight per day.

And the median lethal dose (rodents)?
Its median lethal dose is “about 25 ml/kg of body weight”.

Which results are given for CC(O)CCO (racemic) [racemic 1,3-butanediol, 1,3-butanediol]?
Cooling Activity % (relative to (R)-1,2-propanediol) (philtrum skin; [3]): 10%; Cooling Activity % (relative to (R)-1,2-propanediol) (philtrum skin; in vivo): significant loss of cooling activity

For CC1CCC(C(C)C)C(O)C1 (single isomer, unassigned; (-)) [(−)-menthol], which “Threshold (amount producing cooling sensations on the tongue), average” value (tongue) is on record?
The value was 0.25 µg.

Which “Cooling Activity % (relative to (R)-1,2-propanediol)” value (philtrum skin; [3]) does the source give for OCCCO [1,3-propanediol] here?
Its value is “significant loss of cooling activity; also recorded: inactive”.

For C[C@H](O)CO [(S)-1,2-propanediol], which “Cooling Activity % (relative to (R)-1,2-propanediol)” value (philtrum skin; [3]) is on record?
The value was 47%.

What does the source list for CCCCCCP(=O)(C(C)CC)C(C)CC (stereo not drawn) [CPS-147, 1-(Di-sec-butyl-phosphinoyl)-hexane]?
cooling activity AUC in (R)-1,2-propanediol (philtrum skin; 3 mg/ml, (R)-1,2-propanediol with 2% ethanol vol/vol, philtrum): 81 ± 4 cooling intensity × min; cooling activity AUC in racemic-1,2-propanediol (philtrum skin; 3 mg/ml, racemic 1,2-propanediol with 2% ethanol vol/vol, philtrum): 64 ± 4 cooling intensity × min

What does the source list for CCCCCCCP(=O)(C(C)CC)C(C)CC (stereo not drawn) [CPS-148, 1-(Di-sec-butyl-phosphinoyl)-heptane]?
cooling activity AUC in (R)-1,2-propanediol (philtrum skin; 2 mg/ml, (R)-1,2-propanediol with 1% ethanol vol/vol, philtrum): 173 ± 15 cooling intensity × min; cooling activity AUC in racemic-1,2-propanediol (philtrum skin; 2 mg/ml, racemic 1,2-propanediol with 1% ethanol vol/vol, philtrum): 75 ± 6 cooling intensity × min

With CCOC(=O)[C@@H](C)NC(=O)[C@@H]1C[C@H](C)CC[C@H]1C(C)C [CPS-369, (R)-2-[((1R,2S,5R)-2-isopropyl-5-methyl-cyclohexanecarbonyl)-amino]-propionic acid ethyl ester] as the compound, how does the solubility (solubility in solvents; [4]) read?
The solubility was > 500000 µg/mL.

And the solubility (solubility in solvents; [5])?
Its solubility is ~10000 µg/mL (≈ 35.3 mM).

What about the “cooling activity AUC in (R)-1,2-propanediol” value (philtrum skin; [6]) of the same compound?
The value was 218 ± 12 cooling intensity × min.

And the “cooling activity AUC in racemic-1,2-propanediol” value (philtrum skin; [7])?
Its value is 134 ± 16 cooling intensity × min.

Which results are given for CCCOC(=O)[C@@H](C)NC(=O)[C@@H]1C[C@H](C)CC[C@H]1C(C)C [CPS-410, (R)-2-[((1R,2S,5R)-2-isopropyl-5-methyl-cyclohexanecarbonyl)-amino]-propionic acid n-propyl ester]?
sensations of coolness after application to scalp [1]: produced sensations of coolness; itch after two days of applications [1]: no longer present; cooling activity AUC in (R)-1,2-propanediol (philtrum skin; [6]): 281 ± 7 cooling intensity × min; cooling activity AUC in racemic-1,2-propanediol (philtrum skin; [7]): 122 ± 12 cooling intensity × min

With CCCCOC(=O)[C@@H](C)NC(=O)[C@@H]1C[C@H](C)CC[C@H]1C(C)C [CPS-412, (R)-2-[((1R,2S,5R)-2-isopropyl-5-methyl-cyclohexanecarbonyl)-amino]-propionic acid n-butyl ester] as the compound, how does the “sensations of coolness after application to scalp” value [1] read?
Its value is “less noticeable”.

And the “itch after two days of applications” value [1]?
Its value is “no longer present”.

And the “cooling activity AUC in (R)-1,2-propanediol” value (philtrum skin; [6])?
Its value is 243 ± 5 cooling intensity × min.

And the “cooling activity AUC in racemic-1,2-propanediol” value (philtrum skin; [7])?
Its value is 127 ± 10 cooling intensity × min.

With C[S+](C)[O-] [Dimethylsulfoxide] as the compound, how does the “in vitro inhibition of TRP-M8 response relative to alcohols” value (TRP-M8 receptor; Benedikt et al. 2007) read?
The value was “less inhibitory”.

What does the source list for CCNC(=O)C1CC(C)CCC1C(C)C (stereo not drawn) [WS-3, 2-Isopropyl-5-methyl-cyclohexanecarboxylic acid ethylamide]?
solubility (solubility in solvents; [4]): > 300000 µg/mL; solubility (solubility in solvents; [5]): ~10000 µg/mL (≈ 47.3 mM); cooling effect (philtrum skin; 20 mg/ml in absolute ethanol): did not produce significant cooling; cooling activity AUC in (R)-1,2-propanediol (philtrum skin; 20 mg/ml, (R)-1,2-propanediol with 3% ethanol vol/vol, philtrum): 122 ± 8 cooling intensity × min; cooling activity AUC in racemic-1,2-propanediol (philtrum skin; 20 mg/ml, racemic 1,2-propanediol with 3% ethanol vol/vol, philtrum): 64 ± 6 cooling intensity × min

For CCOC(=O)CNC(=O)[C@@H]1C[C@H](C)CC[C@H]1C(C)C [WS-5, [((1R,2S,5R)-2-isopropyl-5-methyl-cyclohexanecarbonyl)-amino]-acetic acid ethyl ester], which cooling effect (philtrum skin; 10 mg/ml in 100% ethanol) is on record?
The cooling effect was “did not produce any cooling effect”.

With CCO [ethanol] as the compound, how does the “TRP-M8 receptor response to (−)-menthol” value (TRP-M8 receptor; 3% concentration of ethanol) read?
The value was “almost totally lost”.

And the “Cooling Activity % (relative to (R)-1,2-propanediol)” value (philtrum skin; [3])?
Its value is “loss of cooling activity; also recorded: inactive”.

With CC(C)O [isopropanol] as the compound, how does the “Cooling Activity % (relative to (R)-1,2-propanediol)” value (philtrum skin; [3]) read?
Its value is “loss of cooling activity; also recorded: inactive”.

With (R)-1,2-propanediol as the compound, how does the “reversal of ethanol inhibition of WS-5 cooling” value (philtrum skin; added at 10%, 20% and 40% vol/vol to ethanolic solution of WS-5 10 mg/ml, philtrum) read?
Its value is “reversed the ethanol inhibition in a dose-dependent relationship”.

Which “psoriatic condition after a course of treatment” value [2] does the source give for Enbrel® here?
The value was “improved considerably”.

For n-propanol, which “Cooling Activity % (relative to (R)-1,2-propanediol)” value (philtrum skin; [3]) is on record?
Its value is “loss of cooling activity; also recorded: inactive”.
